A short description of experiment [1]: Counterscreen for inhibitors of Trypanosoma brucei methionyl tRNA synthetase (MetRS): Luminescence-based cell-based high throughput dose response assay to identify compounds that are cytotoxic to Jurkat human T lymphocyte cells. In kind it is functional. (In general: Counterscreens check selectivity or assay interference.)
Experiment [2] concerns the target T1, Methionyl-tRNA synthetase, putative (Trypanosoma brucei brucei, UniProt Q38C91).
T1 sequence (Q38C91 whole entry): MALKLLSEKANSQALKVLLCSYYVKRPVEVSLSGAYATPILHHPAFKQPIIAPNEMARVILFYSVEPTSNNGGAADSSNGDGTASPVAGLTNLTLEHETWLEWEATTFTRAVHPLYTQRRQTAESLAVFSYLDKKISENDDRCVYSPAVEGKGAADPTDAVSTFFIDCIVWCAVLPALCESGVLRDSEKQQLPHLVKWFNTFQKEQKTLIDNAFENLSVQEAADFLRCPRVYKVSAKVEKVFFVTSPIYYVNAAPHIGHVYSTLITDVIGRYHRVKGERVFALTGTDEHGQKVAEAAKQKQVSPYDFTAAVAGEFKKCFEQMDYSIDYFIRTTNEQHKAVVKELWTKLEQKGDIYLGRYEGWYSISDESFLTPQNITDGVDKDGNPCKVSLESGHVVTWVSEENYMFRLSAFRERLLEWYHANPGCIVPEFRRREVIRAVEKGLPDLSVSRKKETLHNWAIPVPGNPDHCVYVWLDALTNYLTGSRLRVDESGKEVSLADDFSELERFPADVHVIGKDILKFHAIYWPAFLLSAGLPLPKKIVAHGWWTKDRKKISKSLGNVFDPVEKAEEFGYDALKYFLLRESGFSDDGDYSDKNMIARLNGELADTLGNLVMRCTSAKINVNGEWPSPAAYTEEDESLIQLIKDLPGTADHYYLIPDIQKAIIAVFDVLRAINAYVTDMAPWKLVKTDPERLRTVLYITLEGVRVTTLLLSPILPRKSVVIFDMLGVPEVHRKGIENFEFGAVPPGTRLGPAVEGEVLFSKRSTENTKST
In kind it is functional, Trypanosoma brucei brucei strain 927/4 GUTat10.1.

A short description of experiment [3]: Late stage counterscreen for inhibitors of Trypanosoma brucei methionyl tRNA synthetase (MetRS): Luminescence-based cell-based high throughput dose response assay to identify compounds that are cytotoxic to Jurkat human T lymphocyte cells. The experiment is classed as functional.
The target of experiment [4] is T1, Methionyl-tRNA synthetase, putative. In kind it is functional, Trypanosoma brucei brucei strain 927/4 GUTat10.1. This is another data set of the same source.
A short description of experiment [5]: cells.
Experiment [6] concerns the target Cytochrome P450 3A4 (Homo sapiens, UniProt P08684).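 Note: CYP3A4 tested as one member of a cytochrome P450 panel screen.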
The target of experiment [7] is T2, Oxysterols receptor LXR-beta (Homo sapiens, UniProt P55055).
T2 sequence (P55055 whole entry): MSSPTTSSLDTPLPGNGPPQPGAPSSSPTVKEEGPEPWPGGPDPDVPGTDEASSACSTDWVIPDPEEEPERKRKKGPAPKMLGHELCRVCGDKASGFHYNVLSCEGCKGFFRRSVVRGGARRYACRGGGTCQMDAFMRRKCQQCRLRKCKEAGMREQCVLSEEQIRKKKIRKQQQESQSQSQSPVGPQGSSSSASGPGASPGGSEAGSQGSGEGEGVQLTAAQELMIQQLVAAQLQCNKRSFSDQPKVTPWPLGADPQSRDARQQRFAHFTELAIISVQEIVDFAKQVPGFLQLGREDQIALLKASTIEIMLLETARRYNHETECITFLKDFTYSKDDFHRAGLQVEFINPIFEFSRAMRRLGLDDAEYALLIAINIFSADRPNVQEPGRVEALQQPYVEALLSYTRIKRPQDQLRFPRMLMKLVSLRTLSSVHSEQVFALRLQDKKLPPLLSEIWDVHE
In kind it is functional, cell-based.

The target of experiment [8] is T2, Oxysterols receptor LXR-beta. As to the kind of experiment: LXR agonists, Gal4 luciferase reporter, dose response, counter-screen for ssDAF-12 agonist project, cell-based, luminescence, HEK293, S. stercoralis campaign (AID 720737). The note with it: read-out: IC50 (the source's name). In kind it is functional.
Experiment [9] concerns the target T3, Protein skinhead-1 (Caenorhabditis elegans, UniProt P34707).
T3 sequence (P34707 whole entry): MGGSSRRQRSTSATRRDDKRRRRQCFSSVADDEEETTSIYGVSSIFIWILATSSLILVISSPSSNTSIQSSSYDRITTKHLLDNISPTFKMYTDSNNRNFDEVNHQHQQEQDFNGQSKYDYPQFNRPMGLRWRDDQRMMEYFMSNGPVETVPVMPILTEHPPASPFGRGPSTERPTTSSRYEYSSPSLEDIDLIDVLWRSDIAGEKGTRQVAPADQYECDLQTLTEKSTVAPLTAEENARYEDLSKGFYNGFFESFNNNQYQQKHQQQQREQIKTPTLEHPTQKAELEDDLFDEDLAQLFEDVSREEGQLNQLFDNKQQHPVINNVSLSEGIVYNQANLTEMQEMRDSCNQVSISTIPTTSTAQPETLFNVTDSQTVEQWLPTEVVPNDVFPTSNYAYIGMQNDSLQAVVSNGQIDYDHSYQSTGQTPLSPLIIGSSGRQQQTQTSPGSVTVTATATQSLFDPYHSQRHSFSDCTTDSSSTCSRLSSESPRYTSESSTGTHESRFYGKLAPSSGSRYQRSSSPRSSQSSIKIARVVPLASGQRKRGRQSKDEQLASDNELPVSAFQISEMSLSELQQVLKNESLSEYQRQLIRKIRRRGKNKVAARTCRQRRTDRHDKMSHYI
In kind it is functional.

Experiment [10] can be described thus: Luminescence-based cell-based high throughput dose response assay to identify activators of the DAF-12 from the parasite S. stercoralis (ssDAF-12). In kind it is functional.
A short description of experiment [11]: cytotoxicity in MIN6 insulinoma cells, dose response, cytotoxicity control, cell-based, mouse insulinoma (AID 2122).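 Note: confirmatory high-throughput counterscreen run to flag cytotoxic compounds; mouse MIN-6 beta cells carrying an insulin promoter eGFP reporter.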 In kind it is functional.
Experiment [12] is described as follows: Artemis endonuclease inhibitor potency, dose response, biochemical, fluorescence intensity (AID 720701).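 Note: Artemis endonuclease enzyme.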 The experiment is classed as functional.
Experiment [13] is described as follows: insulin promoter down-regulators in MIN6 cells, imaging, high-content screening, mouse beta cells (AID 1628). In kind it is functional.
The target of experiment [14] is NAD-dependent protein deacylase sirtuin-5, mitochondrial (Homo sapiens, UniProt Q9NXA8). As to the kind of experiment: SIRT5 desuccinylase inhibitors, dose response, biochemical, fluorescence imaging, cherry-pick, set 5 (AID 720591).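 Note: desuccinylation of succinyl peptide AMC substrate read as fluorescence after trypsin release; potency of inhibitors that lower fluorescence and may act on trypsin instead.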
Sequence of NAD-dependent protein deacylase sirtuin-5, mitochondrial (Q9NXA8 whole entry): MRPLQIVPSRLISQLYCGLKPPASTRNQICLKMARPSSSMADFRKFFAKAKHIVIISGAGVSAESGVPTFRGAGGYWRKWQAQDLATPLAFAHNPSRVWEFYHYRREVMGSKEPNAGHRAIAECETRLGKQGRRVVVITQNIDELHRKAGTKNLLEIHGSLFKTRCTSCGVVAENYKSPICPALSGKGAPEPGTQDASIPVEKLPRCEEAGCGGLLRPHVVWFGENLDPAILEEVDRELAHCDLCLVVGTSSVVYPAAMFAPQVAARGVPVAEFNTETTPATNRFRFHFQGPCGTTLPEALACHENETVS
Experiment [15] in a line: Jurkat T cell cytotoxicity, dose response, cytotoxicity control for P. falciparum gametocyte viability project, luminescence (AID 1117277).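 Note: potency reflects loss of cellular ATP meaning fewer viable cells.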 The experiment is classed as functional, cell-based.
Experiment [16] is described as follows: P. falciparum late gametocyte killing, dose response, luminescence (AID 1117278).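 Note: gametocytes exposed to compound for 24 hours.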 The experiment is classed as functional, cell-based.
Experiment [17] is described as follows: MITF Orthogonal Assay: MALME3 CTG Assay Measured in Cell-Based System Using Plate Reader - 2084-04_Inhibitor_Dose_DryPowder_Activity_Set6. In kind it is functional. Particulars: MALME-3.
Experiment [18] in a line: cytotoxicity in primary human melanocytes, dose response, cytotoxicity control, cell-based, plate reader, dry powder (AID 651920). The experiment is classed as functional.
A short description of experiment [19]: MITF Measured in Cell-Based System Using Plate Reader - 2084-01_Inhibitor_Dose_DryPowder_Activity_Set6. In kind it is functional.
A short description of experiment [20]: SK-MEL-5 parental line viability, dose response, MITF inhibitor project, cell-based, CellTiter-Glo, dry powder, set 6 (AID 624429). In kind it is functional. (In general: Cellular ATP, detected with luciferase, serves as a proxy for viable cell number.)
The nature of experiment [21]: A375 melanoma cell cytotoxicity, dose response, counter-screen for MITF inhibitor project, CellTiter-Glo luminescence, dry powder, set 6 (AID 624488). In kind it is functional, cell-based. The note with it: A-375.
A short description of experiment [22]: MALME3 melanoma cell viability reduction, dose response, orthogonal assay for MITF inhibitor project, CellTiter-Glo luminescence, dry powder, set 5 (AID 651584). Particulars: MALME-3. In kind it is functional, cell-based.
Experiment [23] in a line: SK-MEL-5 parental cell viability reduction, dose response, orthogonal assay for MITF inhibitor project, CellTiter-Glo luminescence, dry powder, set 8 (AID 651586). The experiment is classed as functional, cell-based.
A short description of experiment [24]: MITF Measured in Cell-Based System Using Plate Reader - 2084-01_Inhibitor_Dose_DryPowder_Activity_Set7. The experiment is classed as functional.
Experiment [25] in a line: A375 melanoma cell viability loss, dose response, counter-screen for MITF inhibitor project, CellTiter-Glo luminescence, dry powder, set 4 (AID 624364).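 Note: A375 melanoma cells are MITF independent so this is a counter screen.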 The note with it: A-375. The experiment is classed as functional, cell-based.
Experiment [26] is described as follows: MITF Orthogonal Assay: SK-MEL-5 CTG Assay Measured in Cell-Based System Using Plate Reader - 2084-02_Inhibitor_Dose_DryPowder_Activity_Set5. In kind it is functional.
A short description of experiment [27]: TRPM1 promoter luciferase reporter signal decrease, dose response, MITF inhibitor project, cell-based, SK-MEL-5, dry powder, set 9 (AID 651588). The experiment is classed as functional. (A reporter such as luciferase makes a cellular process visible.)
Experiment [28] can be described thus: T. cruzi growth inhibition in host cells, dose response, cell-based, plate reader, dry powder, set 2 (AID 652275). The experiment is classed as functional.
A short description of experiment [29]: T. cruzi intracellular amastigote growth inhibition, dose response, imaging, CA-I/72 strain, bovine embryo skeletal muscle, dry powder (AID 651885). The experiment is classed as functional, cell-based.
Experiment [30] is described as follows: growth inhibition of intracellular T. cruzi, dose response, cell-based, plate reader, dry powder samples (AID 651845). The experiment is classed as functional.

Active and inactive are the calls of the source.

Sequence of Cytochrome P450 3A4 (P08684 whole entry): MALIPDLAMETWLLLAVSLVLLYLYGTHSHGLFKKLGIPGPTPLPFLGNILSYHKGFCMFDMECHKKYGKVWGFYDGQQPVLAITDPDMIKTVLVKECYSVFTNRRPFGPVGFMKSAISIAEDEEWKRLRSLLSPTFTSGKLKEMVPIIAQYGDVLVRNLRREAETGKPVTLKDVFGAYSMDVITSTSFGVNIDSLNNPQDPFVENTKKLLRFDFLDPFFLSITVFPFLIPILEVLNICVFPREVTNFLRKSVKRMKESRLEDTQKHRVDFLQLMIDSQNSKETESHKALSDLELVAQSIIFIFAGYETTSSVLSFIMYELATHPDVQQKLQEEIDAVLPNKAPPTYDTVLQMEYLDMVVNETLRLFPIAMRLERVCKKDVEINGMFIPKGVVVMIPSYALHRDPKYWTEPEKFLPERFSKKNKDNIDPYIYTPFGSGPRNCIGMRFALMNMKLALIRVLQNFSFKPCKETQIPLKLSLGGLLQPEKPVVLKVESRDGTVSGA

On to `O=C(NNC(=O)c1ccc(-n2cncn2)c([N+](=O)[O-])c1)c1ccc(Cl)cc1`, for which the IC50 (as a rule, the concentration needed to halve the response being measured) was 83.2 µM (inactive) in experiment [1], 4.43 µM (active) in experiment [2], > 83.3 µM (inactive) in experiment [3] and 2.72 µM (active) in experiment [4].

For the molecule `Fc1ccc(-c2cn3cc(C(F)(F)F)cc(Cl)c3n2)cc1`, the EC50 in experiment [5], in [7] and in experiment [8] was > 67.5 µM (inactive) each time. Moreover, the half-maximal activity concentration (AC50) (as a rule, the midpoint of the concentration-response curve, whichever way the signal moves) in experiment [6] is 14.1 µM (inconclusive). Besides, the IC50 in experiment [9] is > 100 µM (inactive); in experiment [10], > 67.5 µM (inactive).

Take `COCCNc1nc(-n2nc(C)cc2C)nc2sc3c(c12)CCCC3`: the figures for the IC50 in experiment [11], in experiment [12] and in experiment [13] were 2.1 µM (active), 11.7 µM (active) and 2.54 µM (active), respectively.

For the molecule `Cc1ccc(C(=O)COC(=O)CN2C(=O)C3C4CC(C(Br)C4Br)C3C2=O)cc1` (stereo not given), in [14], the AC50 was > 30 µM (inactive).

Consider `CC(=O)c1c(C)[nH]c(C(=O)COC(=O)C2CC2)c1C`, for which the IC50 is > 83.2 µM (inactive) in experiment [15] and > 109 µM (inactive) in experiment [16].

For the molecule `O=C1C(Nc2ccccc2)=C(c2ccccc2)C(=O)c2ccccc21`, the half-maximal activity concentration (AC50) is 68.9 µM (active) in experiment [17]; > 70 µM (inactive) in experiment [18]; 10.2 µM (active) in experiment [19]; 35 µM (active) in [20]; > 70 µM (inactive) in experiment [21]; 68.9 µM (active) in experiment [22]. For the same molecule, the concentration at half-maximal activity (AC50) is 29.3 µM (active) in experiment [23]; 8.71 µM (active) in experiment [24]; > 70 µM (inactive) in [25]; 27.6 µM (active) in [26]; 28.8 µM (active) in [27].

In the case of `CC(C)N1C[C@H](C)[C@@H](CN(C)Cc2cccc(Cl)c2)Oc2c(NC(=O)c3ccncc3)cccc2C1=O`, the half-maximal activity concentration (AC50) in [28] and in experiment [30] was 2.08 nM (active) in each case. The 50% inhibitory concentration (IC50) in [29] is 1.02 nM (active).
